Test results as given in patent US20160213041A1, “NUTRITIONAL COMPOSITION HAVING LIPOPHILIC COMPOUNDS WITH IMPROVED SOLUBILITY AND BIOAVAILABILITY” (ABBOTT LABORATORIES, priority 2013, published 2016).

Tests used:
[1] = Distribution of lutein and MDG over cream, aqueous and pellet layers after 100,000×g (Example 58); format: physicochemical; conditions: 100,000×g for 1 hour
Protocol: A study was conducted to investigate the distribution of lutein and MDG within the nutritional compositions. Sample were prepared using homogenization at 150/20 bar, and then centrifuged at 100,000×g for 1 hour. The different layers (e.g., cream, aqueous, and pellet) were then analyzed for the presence of lutein and MDG.

[2] = Centrifugation/ultrafiltration analysis of lutein and MDG in MDG batches (Example 60); format: physicochemical; conditions: centrifugation at 1,000×g, samples with NFDM
Protocol: A study was conducted to further investigate the distribution of lutein and MDG within the nutritional composition. Samples included MDG/lutein/water; MDG/lutein/NFDM/water; MDG/lutein/WPC/water; and MDG/water.
The premixes were provided as follows: in samples that contained lutein, lutein was heated for 2 h at 50° C. with shaking. […] In samples that contained protein, non-fat dried milk was added to water (50-60° C.) with agitation and allowed to hydrate for approximately 10 min.
The samples were prepared as follows: for solution 1, water was heated to 50-60° C., an lutein in GMO-40 blend and turrax (30 sec 10000 rpm) was added; for solution 2, NFDM was placed in water solution heated to 50-60° C., and lutein was added in GMO-40 blend and turrax (30 sec 10000 rpm); for solution 3, water was heated to 50-60° C., and GMO-40 blend and turrax (30 sec 10000 rpm) was added. The solutions are listed in the table below as X.1, wherein 1 is the solution.
Samples were formulated as detailed above, and then characterized by ultrafiltration with various membranes, as well as ultracentrifuged at various times and speed (e.g., 100,000×g, 4,500×g, and 1,000×g). The details of the different centrifugation/filtration method are listed below. […]

[3] = 33° C.; cited from earlier work

Molecule | lutein contained in the pellet [1] | present in the aqueous phase following centrifugation ([1]; nutritional compositions comprising MDG, of the nutritional composition) | lutein found in the aqueous phase [2] [%] | reported solubility limit in water [3] [mg/kg]
CC1=C[C@H](O)CC(C)(C)[C@H]1/C=C/C(C)=C/C=C/C(C)=C/C=C/C=C(C)/C=C/C=C(C)/C=C/C1=C(C)C[C@@H](O)CC1(C)C [lutein] | approximately 1% | approximately 4 wt % | ~20 | 
vitamin E |  |  |  | 20.9
